Reference: patent US11014961B2, “Self-labeling miniproteins and conjugates comprising them” (priority 2017, dated 2021)
No end group written: not given here.

Assays:
Format in all cases: biochemical
[1] = Second order rate constant of the reaction between miniprotein (MP) and capture agent (CA), LC-MS TIC peak integration; settings: for Second order rate constant: 0.1 mM MP, 0.5 mM CA
[2] = Labeling conversion of MP with the selection capture agent (LC-MS TIC); settings: 0.5 mM CA, 0.1 mM MP, 5 mM TCEP, 1× selection buffer, pH 7.4
Protocol: All 10 putative self-labeling MPs were chemically synthesized (MP01 and MP02 were additionally made with the full C-terminal constant region). To determine the importance of the C-terminal tag, a kinetic analysis on MP01 was conducted comparing the sequence with and without the tag. […] The remainder of the MPs all reacted with varying second order rate constants and to differing product distributions from multiple cysteine labeling sites (Table 3). […] Of the sequences containing multiple cysteines, all reacted to differing extents. […] On the other hand, MP08 (SEQ ID NO: 53) reacted sluggishly (0.04 μM^−1 s^−1) to produce singly and doubly labeled species. The sole sequence containing three cysteines, MP05 (SEQ ID NO: 44), yielded a mixture of labeled species within an 8-hour reaction—primarily existing with either 2 or 3 labels with a rapid initial labeling process (0.93±0.11 μM^−1 s^−1). Finally, MP01, 07 and 10 (SEQ ID NOs: 13, 52, and 59, respectively) were probed via proteolytic digest-LC-MS/MS analysis, this confirmed that the cysteines were labeled and not an alternative amino acid. […] Conditions used were 0.5 mM CA, 0.1 mM MP, 5 mM TCEP, 1× selection buffer, pH 7.4.

[3] = Labeling conversion of MP with the modified capture agent (LC-MS TIC); settings: 0.5 mM mCA, 0.1 mM MP, 5 mM TCEP, 1× selection buffer, pH 7.4
Protocol: A solution consisting of 5 mM carboxy-(PEG)12-thiol, 500 mM pentafluorophenyl sulfide, 20 mM triphenylphosphine and 230 mM DIEA in acetonitrile was vortexed and left at room temperature for 4 hours. The reaction was then diluted with 10.6× volume of 95% A: 5% B, solid phase extracted and lyophilized. The resulting material was analyzed by LCMS (method 2). This product will later be referred to as mCA (modified CA).
All 10 putative self-labeling MPs were chemically synthesized (MP01 and MP02 were additionally made with the full C-terminal constant region). To determine the importance of the C-terminal tag, a kinetic analysis on MP01 was conducted comparing the sequence with and without the tag. […] The remainder of the MPs all reacted with varying second order rate constants and to differing product distributions from multiple cysteine labeling sites (Table 3). […] Of the sequences containing multiple cysteines, all reacted to differing extents. […] On the other hand, MP08 (SEQ ID NO: 53) reacted sluggishly (0.04 μM^−1 s^−1) to produce singly and doubly labeled species. The sole sequence containing three cysteines, MP05 (SEQ ID NO: 44), yielded a mixture of labeled species within an 8-hour reaction—primarily existing with either 2 or 3 labels with a rapid initial labeling process (0.93±0.11 μM^−1 s^−1). […]

[4] = 5 mM TCEP, 1× selection buffer pH 7.4, RT, a: average of three MP concentrations, c: labeled 1-3 times, d: labeled 1-2 times

Substance | rate enhancement over a non-selected Cys peptide [1] [×] | Second order rate constant [1, 4] | conversion with selection CA [2] [%] | conversion with modified CA (mCA) [3] [%] | Second order rate constant ([1]; 5 mM TCEP, 1× selection buffer pH 7.4, RT) [M⁻¹ s⁻¹] | second order rate constant, second MP01 construct ([1]; MP01 construct with C-terminal tag (per Table 3 footnote b), standard conditions) [M⁻¹ s⁻¹] | Second order rate constant ([1]; footnote b: construct with the full length C-terminal region (-SGSLGHHHHHHRL))
MHNAYLRKSMRQLCYFRRTLHNIHVMSHRG-NH2 [MP10] | ~529 | 1.66 ± 0.48^a M^−1 s^−1 | 91 | 96 |  |  | 
MHQKYKMTKDCFFSFLAHHKKRKLYPMSG-NH2 [MP01] |  | 0.34 ± 0.06^a/ M^−1 s^−1 | 83 | 91 | 0.34 | 0.28 | 0.28 ± 0.02^b M^−1 s^−1
